Test results: patent US20140107104A1, “COMBINATION MEDICINE FOR TREATMENT OF DEPRESSION” (priority 2011, published 2014)

Legend:
dentate gyrus = test: Microarray analysis of genes expressed in the dentate gyrus; type: in vivo, mice; conditions: for expression of depression-related gene group: SKF81297 3 mg/(kg day) i.p. days 10-14; for mRNA expression level Alox8: control C 2.02; for mRNA expression level Drd4: control C 29.28; for mRNA expression level Prir (second line): control C 36.03; for mRNA expression level Drd1a: control C 46.26; for mRNA expression level Prir (first line): control C 48.03; for mRNA expression level S100a4: control C 337.31; for mRNA expression level Anxa2: control C 483.27; for mRNA expression level Rgs4 (second line): control C 687.50; for mRNA expression level Htr4: control C 723.76; for mRNA expression level Furin: control C 742.58; for mRNA expression level Gfap (third line): control C 1308.81; for mRNA expression level Bdnf: control C 1312.91; for mRNA expression level Rgs4 (first line): control C 2347.43; for mRNA expression level Gfap (second line): control C 3008.11
Experimental: Then, microarray analysis of genes expressed in the dentate gyrus of these mice was performed.
The microarray analysis was performed as follows. Total RNA was isolated from the hippocampus of each mouse by TRIzol method (Invitrogen, Carlsbad, Calif.) and then purified using an RNeasy column (Qiagen, Valencia, Calif.). Double strand cDNA was synthesized from the total RNA, and in vitro transcription reaction was performed using biotin-labeled RNA prepared from the cDNA. The labeled RNA was hybridized with Mouse Genome 430 2.0 Array (Affymetrix, Santa Clara, Calif.) comprising specific probe sets, and washing was performed according to the manufacturer's recommendations. The hybridized probe array was stained with streptoavidin conjugate phycoerythrin, and each GeneChip was scanned using Affymetrix GeneChip scanner 3000 (GCS3000). GeneChip analysis was performed using Microarray Analysis Suite version 5.0.

[1] = tested on: dopamine D1 receptor signaling; test: Dopamine D1 receptor signaling in slices of the hippocampal dentate gyrus (phosphorylation of DARPP-32 and ERK); type: cell-based, mice
Experimental: Harvested mouse brain was kept cool in ice-cooled and oxygenated Krebs-HCO3^− buffer, and using vibratome VT1000S (Leica Microsystems, Nussloch, Germany), 350-micrometer-thick continuous coronal slices were prepared. From the coronal slices, slices of the hippocampal dentate gyrus were cut out and used for experiments. Each slice of the hippocampal dentate gyrus was preincubated in 2 mL of Krebs-HCO3^− buffer for 60 minutes and treated with a dopamine D1 receptor agonist, namely SKF81297, and dopamine D1 receptor signaling was analyzed. As an indicator of dopamine D1 receptor signaling, phosphorylation of DARPP-32 (Thr34, PKA site) and of ERK was analyzed. The phosphorylation was analyzed by western blotting with a phosphorylation state-specific antibody.

dopamine D1 receptor = test: Western blotting of dopamine D1 receptor protein in hippocampal dentate gyrus; type: in vivo, mice; conditions: fluoxetine pellet 14 days
From the text: The samples isolated from the hippocampal dentate gyrus of mice treated with a fluoxetine pellet or a control pellet were electrophoresed using acrylamide gel, and separated proteins were electrically transferred to a nitrocellulose membrane. The D1 receptor protein transferred to the membrane was immunologically detected using a D1 receptor antibody. In the immunological detection, Odyssey near-infrared fluorescent imaging system (LI-COR Biosciences, Lincoln, Nebr.) was used.

[2] = tested on: hippocampal dentate gyrus; test: RT-PCR analysis of mRNA expression in hippocampal dentate gyrus after antidepressant pellet; type: in vivo, mice; conditions: subcutaneously implanted pellet, 14 days, compared to placebo pellet
Experimental: The method of subcutaneously implanting each pellet was as follows: a small incision about 5 mm was made in the neck skin of each mouse, a pellet was inserted through the incision to a depth of about 2 cm with tweezers for indwelling, and the skin was sutured.
Total RNA was isolated from the hippocampal dentate gyrus of the mice treated with the fluoxetine pellet or the control pellet. First strand cDNA was prepared from 1 ug of DNaseI-treated total RNA using a reverse transcriptase QuantiTect (registered trademark, Qiagen, Valencia, Calif.). Gene expression was quantified using SYBR green (2×SYBR Green PCR Master Mix; Qiagen, Valencia, Calif.) according to the manufacturer's directions. Quantitative RT-PCR was performed using LightCycler (registered trademark) 480II real-time PCR detection system (Roche, Mannheim, Germany) in the following conditions (95° C.: 5 minutes; and then 40 cycles of 95° C.: 10 seconds, 60° C.: 30 seconds, and 65° C.: 1 minute). Beta-actin was amplified in all the samples for standardization of expression data. Whether or not the DNA region of each targeted gene was amplified was confirmed by melting curve analysis after RT-PCR (95° C.: 1 minute, 55° C.: 30 seconds, 95° C.: 30 seconds). The Ct value used was the average of 2 RT-PCR results.
Experiments were conducted in the same manner as in “1.

dopamine D1 receptor-GFP = test: Immunohistochemical analysis of dentate gyrus of dopamine D1 receptor-GFP mice; type: in vivo; conditions: fluoxetine pellet 14 days vs placebo pellet
Experimental: Each mouse was anesthetized with sodium pentobarbital and perfused with 4% paraformaldehyde (PFA) in 0.1 M phosphate buffered saline (PBS). The brain was removed and subjected to immersion fixation in the same fixing fluid at 4° C. for another 2 hours and […] frontal-plane sections were prepared using a cryostat (Leica). The sections were washed with tris buffered saline (pH 7.4) containing Tween 20. For immunostaining, frozen sections were incubated with the following primary antibody: rabbit anti-calbindin D28K polyclonal antibody (1:3000 dilution; SWANT) at 4° C. for 18 hours. The anti-calbindin D28K polyclonal antibody is a maturation marker for granule cells. For detection of antigen localization, the sections were incubated with Alexa Fluor (594)-conjugate goat anti-rabbit IgG (1:400 dilution; Invitrogen) at 4° C. for 2 hours. Further, for nuclear staining, the sections were stained with DAPI. Fluorescent signals were each analyzed using a confocal laser scanning microscope (LSM5 Pascal, Zeiss).

[3] = fluoxetine pellet 15 mg/(kg day)x14 days

Row | Structure (SMILES) | expression of depression-related gene group (dentate gyrus; [3]) | mRNA expression level Alox8 (dentate gyrus; same regimen) | mRNA expression level Drd4 (dentate gyrus; same regimen) | mRNA expression level Prir (second line) (dentate gyrus; same regimen) | mRNA expression level Drd1a (dentate gyrus; same regimen) | mRNA expression level Prir (first line) (dentate gyrus; same regimen) | mRNA expression level S100a4 (dentate gyrus; same regimen) | mRNA expression level Anxa2 (dentate gyrus; same regimen) | mRNA expression level Rgs4 (second line) (dentate gyrus; same regimen) | mRNA expression level Htr4 (dentate gyrus; same regimen) | mRNA expression level Furin (dentate gyrus; same regimen) | mRNA expression level Gfap (third line) (dentate gyrus; same regimen) | mRNA expression level Bdnf (dentate gyrus; same regimen) | mRNA expression level Rgs4 (first line) (dentate gyrus; same regimen) | mRNA expression level Gfap (second line) (dentate gyrus; same regimen) | mRNA expression of calbindin [2] | mRNA expression of desmoplakin [2] | mRNA expression of dopamine D1 receptor [2] | mRNA expression of interleukin-1 receptor [2] | mRNA expression of tryptophan 2,3-dioxygenase [2] | also measured
1 | Br.Oc1cc2c(c(Cl)c1O)CCNC[C@@H]2c1ccccc1 [SKF81297, R-(+)-6-chloro-7,8-dihydroxy-1-phenyl-2,3,4,5-tetrahydro-1H-3-benzazepine hydrobromide] | neither the SKF81297 sole administration nor the fluoxetine sole administration affected the expression of genes | 2.12 | 30.92 | 160.90 | 43.87 | 61.94 | 389.62 | 684.27 | 1053.99 | 852.76 | 837.03 | 1962.44 | 1516.05 | 2742.21 | 4062.15 | – | – | – | – | – | mRNA expression level S100a10 (dentate gyrus; fluoxetine pellet 15 mg/(kg day)x14 days, SKF81297 3 mg/(kg day) i.p.x5 days, control C 461.56): 469.21; mRNA expression level Gfap (first line) (dentate gyrus; same regimen, control C […]): 140.79
2 | CNCCC(Oc1ccc(C(F)(F)F)cc1)c1ccccc1 (stereo not shown) [fluoxetine] | neither the SKF81297 sole administration nor the fluoxetine sole administration affected the expression of genes | 2.11 | 35.57 | 84.69 | 114.21 | 48.69 | 353.74 | 568.07 | 1215.07 | 903.85 | 799.17 | 1757.42 | 1495.90 | 3659.58 | 3185.26 | less mRNA expression | less mRNA expression | increase in the mRNA expression | less mRNA expression | less mRNA expression | dopamine D1 receptor signaling ([1]; fluoxetine-induced dematured dentate gyrus slices): doubled; phosphorylation of ERK induced by SKF81297 ([1]; slices from mice with fluoxetine pellet 14 days vs placebo pellet): increased; phosphorylation of DARPP-32 (Thr34, PKA site) induced by SKF81297 ([1]; slices from mice with fluoxetine pellet 14 days vs placebo pellet, SKF81297 1 uM or 10 uM): increased; protein expression of dopamine D1 receptor as compared to placebo pellet (dopamine D1 receptor): 4 times; expression of calbindin in granule cells (dopamine D1 receptor-GFP): lowered; expression of dopamine D1 receptor-GFP in granule cells (dopamine D1 receptor-GFP): significantly increased expression
3 | CN(C)CCCN1c2ccccc2CCc2ccccc21 [imipramine] | – | – | – | – | – | – | – | – | – | – | – | – | – | – | – | less mRNA expression | less mRNA expression | increase in the mRNA expression | less mRNA expression | less mRNA expression | mRNA expression of BDNF [2]: increased
